In ChEMBL document CHEMBL5465560, “Selectivity Literature for EUbOPEN Chemogenomic Library” (2024):

Experiments:
[1] = target: DNA-dependent protein kinase catalytic subunit (Homo sapiens) (UniProt P78527); assay: Selectivity interaction (Kinase panel (KiNativ target engagement assay in Jurkat cells)) EUB0001635a PRKDC; type: cell-based; conditions: Selectivity number of off-targets 0.0, Selectivity number of targets 233.0, Source Knowledge https://www.sciencedirect.com/science/article/pii/S2451945619300674?via%3Dihub, at 1 µM
[2] = target: Myosin light chain kinase, smooth muscle (Homo sapiens, UniProt Q15746); assay: Selectivity interaction (KinomeScan (DiscoverX)) EUB0000045b MYLK; conditions: at 1 µM
[3] = target: Interferon-induced, double-stranded RNA-activated protein kinase (Homo sapiens) (UniProt P19525); assay: Selectivity interaction (KinomeScan (DiscoverX)) EUB0000045b EIF2AK2
[4] = target: T1, Calcium/calmodulin-dependent protein kinase type IV (Homo sapiens) (UniProt Q16566); assay: Selectivity interaction (KinomeScan (DiscoverX)) EUB0000045b CAMK4
T1 sequence (whole entry): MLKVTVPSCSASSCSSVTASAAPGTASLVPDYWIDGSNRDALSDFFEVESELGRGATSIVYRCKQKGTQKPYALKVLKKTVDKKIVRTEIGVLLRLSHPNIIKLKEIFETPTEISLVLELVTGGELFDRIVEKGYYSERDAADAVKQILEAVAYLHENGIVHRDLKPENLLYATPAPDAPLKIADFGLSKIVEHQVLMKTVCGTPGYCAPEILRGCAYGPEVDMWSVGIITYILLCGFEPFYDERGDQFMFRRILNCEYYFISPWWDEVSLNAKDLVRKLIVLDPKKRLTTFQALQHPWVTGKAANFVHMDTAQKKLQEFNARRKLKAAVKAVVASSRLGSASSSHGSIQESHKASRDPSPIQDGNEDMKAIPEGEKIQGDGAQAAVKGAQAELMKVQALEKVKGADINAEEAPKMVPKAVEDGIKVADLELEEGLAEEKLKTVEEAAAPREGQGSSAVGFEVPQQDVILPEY

[5] = target: Phosphatidylinositol 3-kinase catalytic subunit type 3 (Homo sapiens, UniProt Q8NEB9); assay: Selectivity interaction (KinomeScan (DiscoverX)) EUB0000695a PIK3C3; conditions: at 100 nM
[6] = target: Insulin receptor-related protein (Homo sapiens) (UniProt P14616); assay: Selectivity interaction (KinomeScan (DiscoverX)) EUB0001079a INSRR; conditions: at 1 µM
[7] = target: Dual specificity mitogen-activated protein kinase kinase 1 (Homo sapiens, UniProt Q02750); conditions: at 10 µM
[8] = target: Fibroblast growth factor receptor 3 (Homo sapiens, UniProt P22607); assay: Selectivity interaction (ProQinase) EUB0000171b FGFR3; conditions: at 5 µM
[9] = target: T2, Mitogen-activated protein kinase kinase kinase 2 (Homo sapiens) (UniProt Q9Y2U5); assay: Selectivity interaction (ProQinase) EUB0000171b MAP3K2
T2 sequence (whole entry): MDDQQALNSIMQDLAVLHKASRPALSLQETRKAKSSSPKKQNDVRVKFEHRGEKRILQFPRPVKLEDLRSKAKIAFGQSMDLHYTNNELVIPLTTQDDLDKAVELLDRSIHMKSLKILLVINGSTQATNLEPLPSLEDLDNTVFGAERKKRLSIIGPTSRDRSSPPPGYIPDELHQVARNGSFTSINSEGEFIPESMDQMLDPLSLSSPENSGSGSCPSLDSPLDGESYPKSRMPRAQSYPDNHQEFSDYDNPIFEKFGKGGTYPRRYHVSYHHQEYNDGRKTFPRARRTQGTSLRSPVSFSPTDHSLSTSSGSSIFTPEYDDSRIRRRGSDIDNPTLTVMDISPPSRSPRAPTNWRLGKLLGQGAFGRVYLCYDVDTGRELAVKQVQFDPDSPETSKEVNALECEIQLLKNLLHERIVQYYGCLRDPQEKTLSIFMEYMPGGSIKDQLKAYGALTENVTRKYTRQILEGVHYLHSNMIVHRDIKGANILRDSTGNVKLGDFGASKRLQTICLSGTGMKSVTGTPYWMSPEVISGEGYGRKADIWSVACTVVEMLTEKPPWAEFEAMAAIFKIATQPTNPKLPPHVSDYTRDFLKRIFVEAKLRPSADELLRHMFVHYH

[10] = target: Putative phosphatidylinositol 4-kinase alpha-like protein P2 (Homo sapiens) (UniProt A4QPH2); assay: Selectivity interaction (ActivX KiNativ screen (ex vivo kinase selectivity in human PBMCs)) EUB0001619a PI4KAP2; type: cell-based; conditions: PBMC, at 1 µM
[11] = target: STE20/SPS1-related proline-alanine-rich protein kinase (Homo sapiens) (UniProt Q9UEW8); assay: Selectivity interaction (KinomeScan (DiscoverX)) EUB0001619a STK39; conditions: at 1 µM
[12] = target: Microtubule-associated serine/threonine-protein kinase 1 (Homo sapiens) (UniProt Q9Y2H9); assay: Selectivity interaction (KinomeScan (DiscoverX)) EUB0001619a MAST1; conditions: at 1 µM
[13] = target: Tyrosine-protein kinase ABL1 (Homo sapiens, UniProt P00519); assay: Selectivity interaction (KinaseProfiler screening (Millipore)) EUB0000601a ABL1; conditions: at 3 µM
[14] = target: Histone-lysine N-methyltransferase, H3 lysine-36 specific (Homo sapiens) (UniProt Q96L73); assay: Selectivity interaction (Methyltransferase screen (Scintillation proximity assays)) EUB0000255b NSD1
[15] = Selectivity interaction (KinomeScan (DiscoverX)) EUB0000607a CDPK1; conditions: at 10 µM
[16] = target: SRSF protein kinase 3 (Homo sapiens) (UniProt Q9UPE1); assay: Selectivity interaction (KinomeScan (DiscoverX)) EUB0000655a SRPK3; conditions: at 10 µM
SRSF protein kinase 3 (Homo sapiens), sequence (Q9UPE1 whole entry): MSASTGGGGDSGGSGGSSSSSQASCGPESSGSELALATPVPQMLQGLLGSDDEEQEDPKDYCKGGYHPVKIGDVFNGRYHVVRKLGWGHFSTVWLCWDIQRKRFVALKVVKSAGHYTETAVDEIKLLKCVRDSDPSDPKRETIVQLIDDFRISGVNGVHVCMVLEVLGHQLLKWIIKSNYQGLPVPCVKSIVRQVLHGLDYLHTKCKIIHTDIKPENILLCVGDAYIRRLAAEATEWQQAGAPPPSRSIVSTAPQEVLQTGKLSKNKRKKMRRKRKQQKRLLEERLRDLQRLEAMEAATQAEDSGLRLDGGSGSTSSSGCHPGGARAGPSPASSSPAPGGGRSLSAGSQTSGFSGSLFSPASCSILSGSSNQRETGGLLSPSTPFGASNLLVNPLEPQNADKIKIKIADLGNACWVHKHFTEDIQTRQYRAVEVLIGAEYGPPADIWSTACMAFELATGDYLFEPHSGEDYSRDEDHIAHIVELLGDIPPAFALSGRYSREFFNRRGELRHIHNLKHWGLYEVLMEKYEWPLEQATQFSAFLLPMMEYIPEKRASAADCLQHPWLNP

Histone-lysine N-methyltransferase, H3 lysine-36 specific (Homo sapiens), sequence (Q96L73 whole entry): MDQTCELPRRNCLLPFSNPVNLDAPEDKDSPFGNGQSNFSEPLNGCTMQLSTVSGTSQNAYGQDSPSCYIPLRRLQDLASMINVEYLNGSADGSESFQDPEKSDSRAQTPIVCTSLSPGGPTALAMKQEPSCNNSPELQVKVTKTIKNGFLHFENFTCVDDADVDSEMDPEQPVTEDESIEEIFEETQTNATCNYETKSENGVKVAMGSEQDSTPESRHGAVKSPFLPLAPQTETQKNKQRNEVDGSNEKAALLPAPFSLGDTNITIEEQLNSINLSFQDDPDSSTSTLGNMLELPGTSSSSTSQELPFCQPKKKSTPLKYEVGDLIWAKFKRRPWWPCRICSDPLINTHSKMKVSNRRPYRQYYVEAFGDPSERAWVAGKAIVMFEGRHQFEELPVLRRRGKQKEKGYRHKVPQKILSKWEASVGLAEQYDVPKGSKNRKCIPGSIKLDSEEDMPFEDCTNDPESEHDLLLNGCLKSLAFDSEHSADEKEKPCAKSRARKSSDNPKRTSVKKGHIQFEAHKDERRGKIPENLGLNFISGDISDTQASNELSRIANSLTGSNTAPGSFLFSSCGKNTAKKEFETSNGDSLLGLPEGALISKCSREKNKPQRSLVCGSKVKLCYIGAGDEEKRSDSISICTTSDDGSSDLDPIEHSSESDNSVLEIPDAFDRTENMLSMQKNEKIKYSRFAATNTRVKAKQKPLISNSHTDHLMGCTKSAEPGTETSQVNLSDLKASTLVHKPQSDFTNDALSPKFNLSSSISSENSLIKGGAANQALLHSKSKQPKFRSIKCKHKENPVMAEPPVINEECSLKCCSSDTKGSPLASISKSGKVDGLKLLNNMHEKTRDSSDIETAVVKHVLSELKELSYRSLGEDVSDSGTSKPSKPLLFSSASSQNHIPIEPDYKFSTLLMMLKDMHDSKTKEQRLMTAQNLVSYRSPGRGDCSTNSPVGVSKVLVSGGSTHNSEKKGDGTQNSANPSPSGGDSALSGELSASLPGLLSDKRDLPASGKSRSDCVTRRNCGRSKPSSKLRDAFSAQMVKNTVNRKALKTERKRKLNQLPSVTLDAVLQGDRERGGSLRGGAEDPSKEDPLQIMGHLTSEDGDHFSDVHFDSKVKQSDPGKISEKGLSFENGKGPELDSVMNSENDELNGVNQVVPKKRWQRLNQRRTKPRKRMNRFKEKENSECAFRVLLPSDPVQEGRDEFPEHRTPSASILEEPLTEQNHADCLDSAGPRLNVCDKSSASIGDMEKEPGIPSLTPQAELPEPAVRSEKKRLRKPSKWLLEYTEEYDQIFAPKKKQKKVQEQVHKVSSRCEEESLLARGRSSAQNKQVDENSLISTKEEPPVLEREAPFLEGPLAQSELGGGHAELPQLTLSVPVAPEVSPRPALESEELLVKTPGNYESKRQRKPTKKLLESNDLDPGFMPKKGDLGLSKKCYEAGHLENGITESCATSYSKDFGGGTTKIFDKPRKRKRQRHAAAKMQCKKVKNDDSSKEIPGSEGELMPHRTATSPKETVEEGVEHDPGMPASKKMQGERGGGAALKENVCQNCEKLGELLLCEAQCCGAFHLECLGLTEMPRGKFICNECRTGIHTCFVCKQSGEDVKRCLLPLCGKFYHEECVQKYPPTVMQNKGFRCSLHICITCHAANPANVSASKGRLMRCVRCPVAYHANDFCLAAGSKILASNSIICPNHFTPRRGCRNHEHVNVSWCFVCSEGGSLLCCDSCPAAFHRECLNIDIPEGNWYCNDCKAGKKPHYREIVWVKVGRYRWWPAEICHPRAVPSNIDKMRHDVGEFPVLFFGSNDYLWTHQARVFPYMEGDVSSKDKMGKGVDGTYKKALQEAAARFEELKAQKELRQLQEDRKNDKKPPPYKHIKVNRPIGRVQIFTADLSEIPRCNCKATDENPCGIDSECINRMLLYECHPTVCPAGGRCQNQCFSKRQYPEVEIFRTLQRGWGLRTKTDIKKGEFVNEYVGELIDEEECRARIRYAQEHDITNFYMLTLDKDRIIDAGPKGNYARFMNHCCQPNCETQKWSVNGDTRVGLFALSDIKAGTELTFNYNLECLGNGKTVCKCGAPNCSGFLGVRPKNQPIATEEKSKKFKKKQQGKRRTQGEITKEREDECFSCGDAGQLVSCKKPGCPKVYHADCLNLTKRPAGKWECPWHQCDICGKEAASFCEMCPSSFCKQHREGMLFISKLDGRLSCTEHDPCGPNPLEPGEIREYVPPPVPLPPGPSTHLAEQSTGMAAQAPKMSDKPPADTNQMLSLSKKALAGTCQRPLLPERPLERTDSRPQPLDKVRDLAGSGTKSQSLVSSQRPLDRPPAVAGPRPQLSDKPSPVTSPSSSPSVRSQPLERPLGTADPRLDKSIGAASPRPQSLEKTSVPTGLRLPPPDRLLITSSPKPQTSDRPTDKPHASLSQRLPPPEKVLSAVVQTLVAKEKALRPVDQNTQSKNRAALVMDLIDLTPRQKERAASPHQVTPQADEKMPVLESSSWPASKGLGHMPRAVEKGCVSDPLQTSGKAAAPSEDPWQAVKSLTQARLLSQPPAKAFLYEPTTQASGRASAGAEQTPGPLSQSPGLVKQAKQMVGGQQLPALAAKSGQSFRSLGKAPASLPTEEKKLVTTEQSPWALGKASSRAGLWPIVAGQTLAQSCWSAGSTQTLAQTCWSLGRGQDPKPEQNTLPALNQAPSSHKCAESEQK
Interferon-induced, double-stranded RNA-activated protein kinase (Homo sapiens), sequence (P19525 whole entry): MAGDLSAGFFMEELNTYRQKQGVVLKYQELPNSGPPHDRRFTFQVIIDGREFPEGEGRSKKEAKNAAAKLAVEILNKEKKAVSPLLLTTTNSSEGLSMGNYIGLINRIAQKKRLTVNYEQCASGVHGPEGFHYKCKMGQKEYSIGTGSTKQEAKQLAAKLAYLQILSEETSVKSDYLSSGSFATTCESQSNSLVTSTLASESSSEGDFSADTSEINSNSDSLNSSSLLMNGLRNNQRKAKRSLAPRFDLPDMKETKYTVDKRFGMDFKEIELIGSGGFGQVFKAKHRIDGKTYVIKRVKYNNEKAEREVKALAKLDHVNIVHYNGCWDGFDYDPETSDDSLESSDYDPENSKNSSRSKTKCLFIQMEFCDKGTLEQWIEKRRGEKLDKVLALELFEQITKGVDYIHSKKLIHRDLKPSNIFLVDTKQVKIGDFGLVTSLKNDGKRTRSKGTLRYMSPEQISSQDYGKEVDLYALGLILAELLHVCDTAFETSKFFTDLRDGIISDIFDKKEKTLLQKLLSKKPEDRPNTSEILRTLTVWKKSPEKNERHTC
Insulin receptor-related protein (Homo sapiens), sequence (P14616 27-742 limits assumed): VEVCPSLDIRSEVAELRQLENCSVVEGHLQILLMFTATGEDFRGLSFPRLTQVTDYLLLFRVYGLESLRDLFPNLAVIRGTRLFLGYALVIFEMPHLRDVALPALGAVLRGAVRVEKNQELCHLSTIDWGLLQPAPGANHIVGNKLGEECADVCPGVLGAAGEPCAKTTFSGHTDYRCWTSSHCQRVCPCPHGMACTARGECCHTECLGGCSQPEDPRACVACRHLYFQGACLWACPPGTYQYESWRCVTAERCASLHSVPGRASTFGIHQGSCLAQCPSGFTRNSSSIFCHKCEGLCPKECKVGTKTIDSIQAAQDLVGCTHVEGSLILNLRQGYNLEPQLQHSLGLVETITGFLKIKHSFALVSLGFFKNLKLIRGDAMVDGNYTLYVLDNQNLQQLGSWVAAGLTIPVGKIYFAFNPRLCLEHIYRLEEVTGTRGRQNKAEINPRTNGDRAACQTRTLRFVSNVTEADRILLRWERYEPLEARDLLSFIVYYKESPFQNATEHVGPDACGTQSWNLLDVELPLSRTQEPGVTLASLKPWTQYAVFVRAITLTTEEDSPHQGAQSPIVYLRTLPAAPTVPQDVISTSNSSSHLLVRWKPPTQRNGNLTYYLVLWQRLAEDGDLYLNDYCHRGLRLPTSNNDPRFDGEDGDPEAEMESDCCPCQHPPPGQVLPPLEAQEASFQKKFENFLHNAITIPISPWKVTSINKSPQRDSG
Insulin receptor-related protein (Homo sapiens), sequence (P14616 747-1297 limits assumed): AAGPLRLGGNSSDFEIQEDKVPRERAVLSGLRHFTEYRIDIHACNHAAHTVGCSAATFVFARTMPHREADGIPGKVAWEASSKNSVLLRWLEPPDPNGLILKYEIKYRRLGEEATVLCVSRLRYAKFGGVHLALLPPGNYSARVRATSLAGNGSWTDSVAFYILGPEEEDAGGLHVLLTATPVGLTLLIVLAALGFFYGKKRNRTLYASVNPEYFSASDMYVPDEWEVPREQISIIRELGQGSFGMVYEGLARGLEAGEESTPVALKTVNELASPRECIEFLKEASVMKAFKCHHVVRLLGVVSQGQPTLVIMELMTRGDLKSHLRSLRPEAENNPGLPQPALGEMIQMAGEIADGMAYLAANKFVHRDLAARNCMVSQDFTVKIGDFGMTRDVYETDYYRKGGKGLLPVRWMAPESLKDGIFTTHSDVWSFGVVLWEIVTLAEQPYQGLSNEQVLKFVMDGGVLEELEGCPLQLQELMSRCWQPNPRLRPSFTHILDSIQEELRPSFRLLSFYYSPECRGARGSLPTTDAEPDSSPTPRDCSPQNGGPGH

`C=CC(=O)Nc1ccc(C(=O)Nc2[nH]nc3c2CN(C(=O)N[C@H](CN(C)C)c2ccccc2)C3(C)C)cc1` showed a % of engagement [1] of -21.9%.

For `C=CC(=O)Nc1cc(-n2c(=O)ccc3cnc4ccc(-c5ccc(NS(C)(=O)=O)cc5)cc4c32)ccc1C`, the % of control [2] was 100%, the % of control ([3]; at 1 µM) was 100% and the % of control ([3]; at 10 µM) was 71%. It also gave a % of control ([4]; at 1 µM) of 100% and a % of control ([4]; at 10 µM) of 72%.

In the case of `Cc1cc(F)c(C(=O)Nc2cccc(-c3nncn3C(C)C)n2)cc1-n1cnc(C2CC2)c1`, the % of control [5] is reported as 88%.

`Nc1cnc(N2CCc3cc(S(=O)(=O)Nc4c(F)cc(Cl)cc4F)cc(N4CCCC4=O)c32)nc1` [TP-020n] showed a % of control [6] of 100%.

In the case of `Cc1cc([C@@H](C)Nc2ccccc2C(=O)O)c2nc(N3CCOCC3)cc(=O)n2c1` [AZD-6482], the % of control [7] is reported as 89%.

With `C=CC(=O)Nc1cccc(C(=O)Nc2ccc(Nc3cc(-c4[nH]c(SC)nc4C)ccn3)cc2)c1` the % of control [8] was 91%, the % of control ([9]; at 1 µM) was 99% and the % of control ([9]; at 5 µM) was 88%.

For `N#Cc1cccc(-c2c[nH]c3ncnc(N4CCOCC4)c23)c1`, the % of inhibition [10] was 6%, the % of control [11] was 92% and the % of control [12] was 73%.

For `CCc1cc(Nc2nccc(-c3c(-c4ccc(OC)c(C(=O)Nc5c(F)cccc5F)c4)nc4ccccn34)n2)c(OC)cc1N1CCC(N2CCN(S(C)(=O)=O)CC2)CC1`, the % of inhibition [13] was 57%.

In the case of `COCCN1CCC(c2cc(CN(C)C(=O)c3cccc(Oc4ccccc4)c3)ccn2)CC1`, the % activity ([14]; at 1 µM) is reported as > 95% and the % activity ([14]; at 10 µM) is reported as > 90%.

Molecule `CNC(=O)Nc1ccc(-c2nc(N3CC4CCC(C3)O4)c3cnn(C4CCC5(CC4)OCCO5)c3n2)cc1` has a % of control [15] of 86%.

`CN(C)CCOc1ccc(-c2nc(-c3ccncc3)c(-c3ccc4c(c3)CC/C4=N\O)[nH]2)cc1` showed a % of control [16] of 100%.
